# Patent publication US11752131B2, “Methods and pharmaceutical compositions for the treatment of obesity” (INSERM (Institut National de la Sante et de la Recherche …, priority 2016, dated 2023)
# Assays:
# [1] = tested on: HFD-fed mice; assay: Insulin tolerance test (ITT) in HFD-fed mice; format: in vivo; conditions: after 9 wks of HFD (FIG. 2A) and 20 wks of FAT diet (FIG. 2B), insulin 0.75 U/kg i.p., adjusted on percentage of fat mass gained
# Protocol: (§1) C57BL/6 Ido-1−/− mice were from the Jackson Laboratory. Seven week-old Bl6 and Idoko male mice were subjected to HFD containing 60% fat during 20 weeks.
# Insulin tolerance tests (ITT) was performed in mice food deprived 5 h prior intraperitoneal injection of insulin (0.75 U/kg). Blood was sampled from the tail vein at 0, 5, 15, 30, 60 and 120 min in order to assay glucose concentration (glucometer, France).
# We next examined the effect of Ido deficiency or inhibition on glucose homeostasis in HFD-fed mice. To this end, we performed insulin tolerance tests (ITT) on Bl6, Idoko mice and Ido inhibitor (L-1 methyl tryptophan, L-1MT)-treated mice after 9 wks or 20 wks of HFD.
# [2] = tested on: HFD-fed mice; assay: Oral glucose tolerance test (OGTT) with HOMA-IR index in HFD-fed mice; format: in vivo; conditions: after 9 or 20 wks of HFD, normalized to fat mass (FIG. 3), versus Bl6 mice
# Protocol: as §1
# The oral glucose tolerance test was performed in mice food deprived for overnight prior to an oral administration of 3 g/kg glucose. Blood was sampled from the tail vein at 0, 5, 15, 30, 60 and 120 min in order to assay glucose concentration (glucometer, France). Plasma insulin concentration was measured using ELISA kit (Crystal Chem Inc., Downers Grove, Ill., USA). HOMA-IR in mice was calculated using the equation (fasting glucose concentration×fasting insulin concentration)/405).
# Moreover, the insulin resistance index (HOMA-IR) was lower in Ido KO mice or L1MT-treated mice after 9 or 20 wks of HFD (FIG. 3).
smiles,measurement,setting,value
"Cn1cc(C[C@H](N)C(=O)O)c2ccccc21 [L-1MT, L-1 methyl tryptophan]",insulin sensitivity in insulin tolerance test (ITT) versus Bl6 mice,[1],more insulin sensitive
same,insulin resistance index (HOMA-IR),[2],lower
